In patent US11225480B2, “Malic enzyme inhibitors” (SUN PHARMA ADVANCED RESEARCH COMPANY LTD, priority 2019, dated 2022):
Structures can show the parent of a compound that is named as a salt.

Tests used:
Assay type in all cases: biochemical
human ME3 enzyme = molecular target: T1, human ME3 enzyme (Homo sapiens, UniProt Q16798); assay: ME3 inhibition assay (diaphorase/resazurin coupled fluorescence); details: 10 μM compound concentration; read-out: Malic Enzyme 3 % inhibition (10 μM)
T1 sequence (Q16798 1-604): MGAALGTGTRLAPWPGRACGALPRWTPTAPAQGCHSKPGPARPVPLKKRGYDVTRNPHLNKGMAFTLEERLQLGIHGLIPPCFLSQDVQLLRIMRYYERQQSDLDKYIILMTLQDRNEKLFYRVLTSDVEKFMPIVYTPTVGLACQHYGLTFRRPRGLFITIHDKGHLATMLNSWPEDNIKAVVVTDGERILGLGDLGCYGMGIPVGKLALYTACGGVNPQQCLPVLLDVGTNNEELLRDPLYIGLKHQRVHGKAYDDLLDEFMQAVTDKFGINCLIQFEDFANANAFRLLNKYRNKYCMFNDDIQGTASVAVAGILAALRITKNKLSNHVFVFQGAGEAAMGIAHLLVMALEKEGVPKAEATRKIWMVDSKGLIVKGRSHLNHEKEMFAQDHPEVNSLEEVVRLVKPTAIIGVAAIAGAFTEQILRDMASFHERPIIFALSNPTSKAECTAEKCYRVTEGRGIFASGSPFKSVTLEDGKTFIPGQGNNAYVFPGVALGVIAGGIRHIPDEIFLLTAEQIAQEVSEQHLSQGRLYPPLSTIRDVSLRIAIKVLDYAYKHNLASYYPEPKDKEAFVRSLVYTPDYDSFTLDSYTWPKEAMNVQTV
Procedure, shortened: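 Coupled read-out: NADPH made by human ME3 (20 nM stock) drives diaphorase conversion of resazurin (50 μM) to resorufin; buffer 50 mM Tris-HCl pH 7.5, 10 mM MnCl2, 3 mM L-malate.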

human ME2 enzyme = human ME2 enzyme (Homo sapiens, UniProt P23368); assay: ME2 inhibition assay (diaphorase/resazurin coupled fluorescence); details: 10 μM compound concentration; read-out: Malic Enzyme 2 % inhibition (10 μM)
Procedure, shortened: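 Human ME2 (10 μL of 60 nM) was preincubated 5 min at room temperature with compound (10 μM) in 50 mM Tris-HCl pH 7.5, 10 mM MnCl2, 7 mM L-malate, 50 μM resazurin and 0.025 mg/ml diaphorase. The reaction was started with 10 μL of 2 mM β-NAD+ and run 2 hours at room temperature. Resorufin fluorescence (ex 540/em 600 nm) was normalized to enzyme-only (100%) and no-enzyme (0%) controls as % activity.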

human ME1 enzyme = molecular target: T2, human ME1 enzyme (Homo sapiens, UniProt P48163); assay: ME1 inhibition assay (diaphorase/resazurin coupled fluorescence); details: 10 μM compound concentration; read-out: Malic Enzyme 1 % inhibition (10 μM)
T2 sequence (P48163 1-572): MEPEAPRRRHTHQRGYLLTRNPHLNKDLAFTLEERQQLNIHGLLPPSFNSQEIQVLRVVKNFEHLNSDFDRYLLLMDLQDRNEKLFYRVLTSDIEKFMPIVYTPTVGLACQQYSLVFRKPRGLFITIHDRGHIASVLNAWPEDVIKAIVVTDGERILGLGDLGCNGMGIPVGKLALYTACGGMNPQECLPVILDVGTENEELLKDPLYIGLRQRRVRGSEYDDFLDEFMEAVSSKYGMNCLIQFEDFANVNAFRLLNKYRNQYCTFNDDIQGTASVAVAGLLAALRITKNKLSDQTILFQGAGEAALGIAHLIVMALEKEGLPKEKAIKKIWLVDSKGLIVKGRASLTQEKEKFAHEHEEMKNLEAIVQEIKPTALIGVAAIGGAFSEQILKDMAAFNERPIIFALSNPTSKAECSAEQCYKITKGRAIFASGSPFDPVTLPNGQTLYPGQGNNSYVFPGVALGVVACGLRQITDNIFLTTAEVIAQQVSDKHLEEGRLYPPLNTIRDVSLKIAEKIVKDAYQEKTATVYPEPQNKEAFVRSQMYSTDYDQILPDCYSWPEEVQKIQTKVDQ
Procedure, shortened: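 Compounds at 10 μM preincubated 15 min in 50 mM Tris-HCl pH 7.5, 10 mM MnCl2, 2 mM L-malate, 10 μM resazurin, 0.01 mg/ml diaphorase, then human ME1 added for 5 min; reaction started with NADP+ and run 2 h at room temperature. Resorufin fluorescence (ex 540/em 600 nm) normalized to enzyme-only (100%) and no-enzyme (0%) controls.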

human ME2 enzyme, sequence (P23368 19-584): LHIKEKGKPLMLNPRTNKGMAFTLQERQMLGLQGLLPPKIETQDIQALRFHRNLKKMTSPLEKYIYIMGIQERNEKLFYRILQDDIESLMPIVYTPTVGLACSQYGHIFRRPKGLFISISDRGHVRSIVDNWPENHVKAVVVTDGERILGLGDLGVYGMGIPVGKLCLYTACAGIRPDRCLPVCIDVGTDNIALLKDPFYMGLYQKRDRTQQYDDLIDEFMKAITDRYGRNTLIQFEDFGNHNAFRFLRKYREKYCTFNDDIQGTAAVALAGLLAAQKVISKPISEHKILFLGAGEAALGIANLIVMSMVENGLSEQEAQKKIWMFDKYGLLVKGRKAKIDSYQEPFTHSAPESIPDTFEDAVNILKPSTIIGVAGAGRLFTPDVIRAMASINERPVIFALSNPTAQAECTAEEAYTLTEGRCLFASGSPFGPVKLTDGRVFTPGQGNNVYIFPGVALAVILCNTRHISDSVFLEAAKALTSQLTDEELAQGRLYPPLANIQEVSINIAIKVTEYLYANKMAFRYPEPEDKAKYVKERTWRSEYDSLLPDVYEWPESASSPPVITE

How did the inhibition at 10 µM (human ME3 enzyme) turn out when CC(C)(Sc1ccccc1Br)C(=O)N1CCN(c2ccc(O)cn2)CC1 [I.162, 2-(2-Bromo-phenyl-sulfanyl)-1-[4-(5-hydroxy-pyridin-2-yl)-piperazin-1-yl]-2-methyl-propan-1-one] was run?
Its inhibition at 10 µM is greater than 90%.

And the inhibition at 10 µM (human ME2 enzyme)?
Its inhibition at 10 µM is greater than 90%.

What about the inhibition at 10 µM (human ME1 enzyme) of the same compound?
Its inhibition at 10 µM is greater than 90%.

Which inhibition at 10 µM (human ME3 enzyme) does the source give for O=C(CSc1ccc(F)cc1)N1CCN(c2ccc(O)cn2)CC1 [I.163, 2-(4-Fluoro-phenyl-sulfanyl)-1-[4-(5-hydroxy-pyridin-2-yl)-piperazin-1-yl]-ethanone] here?
Its inhibition at 10 µM is greater than 90%.

What about the inhibition at 10 µM (human ME2 enzyme) of the same compound?
Its inhibition at 10 µM is greater than 90%.

And the inhibition at 10 µM (human ME1 enzyme)?
Its inhibition at 10 µM is greater than 90%.

For O=C(COc1ccc(F)cc1)N1CCN(c2ccc(O)cn2)CC1 [I.164, 2-(4-Fluoro-phenoxy)-1-[4-(5-hydroxy-pyridin-2-yl)-piperazin-1-yl]-ethanone], which inhibition at 10 µM (human ME3 enzyme) is on record?
Its inhibition at 10 µM is greater than 90%.

What about the inhibition at 10 µM (human ME2 enzyme) of the same compound?
The inhibition at 10 µM was greater than 90%.

What about the inhibition at 10 µM (human ME1 enzyme) of the same compound?
Its inhibition at 10 µM is greater than 90%.

With Cn1cc(CC(=O)N2CCN(c3ccc(O)cn3)CC2)c2cc(F)ccc21 [I.165, 2-(5-Fluoro-1-methyl-indol-3-yl)-1-[4-(5-hydroxy-pyridin-2-yl)-piperazin-1-yl]-ethanone] as the compound, how does the inhibition at 10 µM (human ME3 enzyme) read?
The inhibition at 10 µM was greater than 90%.

And the inhibition at 10 µM (human ME2 enzyme)?
Its inhibition at 10 µM is greater than 90%.

What about the inhibition at 10 µM (human ME1 enzyme) of the same compound?
Its inhibition at 10 µM is greater than 90%.

Which inhibition at 10 µM (human ME3 enzyme) does the source give for Cc1[nH]c2ccc(F)cc2c1CC(=O)N1CCN(c2ccc(O)cn2)CC1 [I.166, 2-(5-Fluoro-2-methyl-1H-indol-3-yl)-1-[4-(5-hydroxy-pyridin-2-yl)-piperazin-1-yl]-ethanone] here?
Its inhibition at 10 µM is greater than 90%.

What about the inhibition at 10 µM (human ME2 enzyme) of the same compound?
Its inhibition at 10 µM is greater than 90%.

What about the inhibition at 10 µM (human ME1 enzyme) of the same compound?
The inhibition at 10 µM was greater than 90%.

Which results are given for O=C(Cc1c[nH]c2c(F)cc(F)cc12)N1CCN(c2ccc(O)cn2)CC1 [I.167, 2-(5,7-Difluoro-1H-indol-3-yl)-1-[4-(5-hydroxy-pyridin-2-yl)-piperazin-1-yl]-ethanone]?
inhibition at 10 µM (human ME3 enzyme): > 90%; inhibition at 10 µM (human ME2 enzyme): > 90%; inhibition at 10 µM (human ME1 enzyme): > 90%

For O=C(C(=O)N1CCN(c2ccc(O)cn2)CC1)c1c[nH]c2ccc(F)cc12 [I.168, 1-(5-Fluoro-1H-indol-3-yl)-2-[4-(5-hydroxy-pyridin-2-yl)-piperazin-1-yl]-ethane-1,2-dione], which inhibition at 10 µM (human ME3 enzyme) is on record?
Its inhibition at 10 µM is greater than 90%.

And the inhibition at 10 µM (human ME2 enzyme)?
The inhibition at 10 µM was greater than 90%.

What about the inhibition at 10 µM (human ME1 enzyme) of the same compound?
The inhibition at 10 µM was greater than 90%.

CC(C)(C(=O)N1CCN(c2ccc(O)cn2)CC1)c1c[nH]c2ccc(F)cc12 [I.169, 2-(5-Fluoro-1H-indol-3-yl)-1-[4-(5-hydroxy-pyridin-2-yl)-piperazin-1-yl]-2-methyl-propan-1-one] was tested. Which inhibition at 10 µM (human ME3 enzyme) did it give?
Its inhibition at 10 µM is greater than 90%.

And the inhibition at 10 µM (human ME2 enzyme)?
The inhibition at 10 µM was greater than 90%.

And the inhibition at 10 µM (human ME1 enzyme)?
The inhibition at 10 µM was greater than 90%.

What does the source list for O=C(CCc1cc(F)c(F)c(F)c1)N1CCN(c2ccc(O)cn2)CC1 [I.170, 1-[4-(5-Hydroxy-pyridin-2-yl)-piperazin-1-yl]-3-(3,4,5-trifluoro-phenyl)-propan-1-one]?
inhibition at 10 µM (human ME3 enzyme): > 90%; inhibition at 10 µM (human ME2 enzyme): > 90%; inhibition at 10 µM (human ME1 enzyme): > 90%

What does the source list for O=C(Cc1cc(F)c(F)c(F)c1)N1CCN(c2ccc(O)cc2)CC1 [I.171, 1-[4-(4-Hydroxy-phenyl)-piperazin-1-yl]-2-(3,4,5-trifluoro-phenyl)-ethanone]?
inhibition at 10 µM (human ME3 enzyme): > 90%; inhibition at 10 µM (human ME2 enzyme): > 90%; inhibition at 10 µM (human ME1 enzyme): > 90%

Which results are given for C=CC(=O)NC(CC(=O)N1CCN(c2ccc(O)cn2)CC1)c1ccccc1 (stereo not drawn) [I.172, N-{3-[4-(5-Hydroxy-pyridin-2-yl)-piperazin-1-yl]-3-oxo-1-phenyl-propyl}-acrylamide]?
inhibition at 10 µM (human ME3 enzyme): > 90%; inhibition at 10 µM (human ME2 enzyme): > 90%; inhibition at 10 µM (human ME1 enzyme): 50 to 69%

For CC(C)(CC(=O)N1CCN(c2ccc(O)cc2)CC1)c1ccccc1 [I.173, 1-[4-(4-Hydroxy-phenyl)-piperazin-1-yl]-3-methyl-3-phenyl-butan-1-one hydrochloride salt], which inhibition at 10 µM (human ME3 enzyme) is on record?
Its inhibition at 10 µM is greater than 90%.

What about the inhibition at 10 µM (human ME2 enzyme) of the same compound?
The inhibition at 10 µM was greater than 90%.

And the inhibition at 10 µM (human ME1 enzyme)?
Its inhibition at 10 µM is 70 to 89%.

O=C(Cc1c[nH]c2cc(Cl)c(Cl)cc12)N1CCN(c2ccc(O)cn2)CC1 [I.174, 2-(5,6-Dichloro-1H-indol-3-yl)-1-[4-(5-hydroxy-pyridin-2-yl)-piperazin-1-yl]-ethanone] was tested. Which inhibition at 10 µM (human ME3 enzyme) did it give?
Its inhibition at 10 µM is greater than 90%.

What about the inhibition at 10 µM (human ME2 enzyme) of the same compound?
The inhibition at 10 µM was greater than 90%.

What about the inhibition at 10 µM (human ME1 enzyme) of the same compound?
The inhibition at 10 µM was greater than 90%.

Cc1[nH]c2ccc(Cl)cc2c1CC(=O)N1CCN(c2ccc(O)cn2)CC1 [I.175, 2-(5-Chloro-2-methyl-1H-indol-3-yl)-1-[4-(5-hydroxy-pyridin-2-yl)-piperazin-1-yl]-ethanone] was tested. Which inhibition at 10 µM (human ME3 enzyme) did it give?
Its inhibition at 10 µM is greater than 90%.

And the inhibition at 10 µM (human ME2 enzyme)?
Its inhibition at 10 µM is greater than 90%.

What about the inhibition at 10 µM (human ME1 enzyme) of the same compound?
Its inhibition at 10 µM is greater than 90%.

For Cc1[nH]c2cc(Cl)c(Cl)cc2c1CC(=O)N1CCN(c2ccc(O)cn2)CC1 [I.176, 2-(5,6-Dichloro-2-methyl-1H-indol-3-yl)-1-[4-(5-hydroxy-pyridin-2-yl)-piperazin-1-yl]-ethanone], which inhibition at 10 µM (human ME3 enzyme) is on record?
The inhibition at 10 µM was greater than 90%.

And the inhibition at 10 µM (human ME2 enzyme)?
Its inhibition at 10 µM is greater than 90%.

What about the inhibition at 10 µM (human ME1 enzyme) of the same compound?
The inhibition at 10 µM was greater than 90%.
